From patent publication US4115385A, “Antibacterial 3-(5-tetrazolyl) penam compounds” (Pfizer Inc., priority 1977, dated 1978)
In brackets after ≈: the same amount, converted by molar mass. Read-outs that look alike come from different tables or passages of the source.

Columns and labels:
[1] = test system: Escherichia coli; assay: In vivo protection of mice against systemic infection by Escherichia coli; conditions: multiple dosing
Experimental: (§1) The antibacterial penam compounds of the instant invention are also active in vivo. In determining such activity, the test antibiotic is administered to infected mice, using a multiple dosing regimen. The severity of the infection varies from about one to about ten times that needed to kill 100% of the mice under the conditions of the test. At the end of the test, the activity of a compound is assessed by counting the number of survivors among the treated animals. Both the subcutaneous (SC) and the oral (PO) dosage routes are used. Results are given in Table I for two of the compounds of the invention. The ability of the compounds to protect mice against systemic infections caused by a lethal intraperitoneal inoculum of Staphylococcus aureus or of Escherichia coli is presented.

[2] = test system: Staphylococcus aureus; assay: In vivo protection of mice against systemic infection by Staphylococcus aureus; conditions: multiple dosing
Experimental: as §1

[3] = test system: Streptococcus pyogenes; assay: In vitro minimum inhibitory concentration (MIC) vs. Strep. pyogenes; format: cell-based; conditions: Streptococcus pyogenes; Table II; two-fold serial dilution, Brain-Heart Infusion broth, overnight; read-out: MIC vs. Strep. pyogenes
Procedure, shortened: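 Broth inoculated with bacteria and test antibiotic, incubated overnight and read visually; MIC is the lowest concentration preventing turbidity. Test preparations also contain some of the corresponding tetrazole tautomer.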

[4] = test system: Staphylococcus aureus; assay: In vitro minimum inhibitory concentration (MIC) vs. Staph. aureus; format: cell-based; conditions: Staphylococcus aureus
Experimental: The antibacterial penam compounds of the instant invention show activity against a wide variety of gram-positive and gram-negative bacteria. […] The broth is inoculated with the bacterial culture, and with the test antibiotic, and then it is incubated overnight. On the next day, the test is read visually. The minimum inhibitory concentration (MIC) is the lowest concentration of antibiotic which prevents turbidity, i.e., which prevents growth of the microorganism. In vitro activities of several of the penam compounds of the invention are presented later in this specification.
In Table II, the minimum inhibitory concentrations (MIC's) of compounds of formula I, wherein R^2 is hydrogen, against a strain of Streptococcus pyogenes, are reported; and in Table III, minimum inhibitory concentrations of compounds of formula I, wherein R^2 is hydrogen, against a strain of Staphylococcus aureus, are presented. Because of the tautomeric nature of such tetrazole derivatives, referred to hereinbefore,each of the preparations tested also contains some of the corresponding compound of formula II, wherein R^3 is hydrogen.

[5] = Table III, two-fold serial dilution, Brain-Heart Infusion broth, overnight, read-out: MIC vs. Staph. aureus

CC1(C)S[C@@H]2[C@H](NC(=O)[C@H](N)c3ccc(O)cc3)C(=O)N2[C@H]1c1nnn[nH]1 [D-2-amino-2-(p-hydroxyphenyl)acetyl, 6-(D-2-Amino-2-[4-hydroxyphenyl]acetamido)-2,2-dimethyl-3-(5-tetrazolyl)penam]
Percentage Protection E. coli ([1]; 25 mg./kg. SC): 80%
Percentage Protection E. coli ([1]; 50 mg./kg. SC): 100%
Percentage Protection E. coli ([1]; 200 mg./kg. PO): 100%
Percentage Protection S. aureus ([2]; 6 mg./kg. SC): 50%
Percentage Protection S. aureus ([2]; 12 mg./kg. SC): 50%
Percentage Protection S. aureus ([2]; 25 mg./kg. SC): 70%
Percentage Protection S. aureus ([2]; 50 mg./kg. SC): 80%
MIC [3]: < 0.1 µg/mL

CC1(C)S[C@@H]2[C@H](N3C(=O)[C@@H](c4ccc(O)cc4)NC3(C)C)C(=O)N2[C@H]1c1nnn[nH]1 [6-(2,2-Dimethyl-5-oxo-4-[p-hydroxyphenyl]-1-imidazolidinyl)-2,2-dimethyl-3-(5-tetrazolyl)penam]
MIC ([4]; Table IV, values marked *, read-out: MIC against Staph. aureus): 0.78 µg/mL (≈ 1.82 µM)

CC1(C)S[C@@H]2[C@H](NC(=O)[C@H](NC(=O)CNC(=N)c3ccc[nH]3)c3ccccc3)C(=O)N2[C@H]1c1nnn[nH]1
MIC [4, 5]: 50 µg/mL (≈ 95.7 µM)

CC1(C)S[C@@H]2[C@H](NC(=O)[C@H](NS(=O)(=O)c3ccc([N+](=O)[O-])cc3)c3ccccc3)C(=O)N2[C@H]1c1nn[nH]n1
MIC [4, 5]: 1.56 µg/mL (≈ 2.79 µM)

CC1(C)S[C@@H]2[C@H](NC(=O)[C@H](NC(=O)CNC(=O)c3cc(Br)cc(Br)c3)c3ccccc3)C(=O)N2[C@H]1c1nnn[nH]1
MIC [4, 5]: 1.56 µg/mL (≈ 2.25 µM)

Cc1ccc(S(=O)(=O)NC(=O)N[C@@H](C(=O)N[C@@H]2C(=O)N3[C@@H]2SC(C)(C)[C@@H]3c2nn[nH]n2)c2ccccc2)cc1
MIC [4, 5]: 6.25 µg/mL (≈ 11 µM)

CC1(C)S[C@@H]2[C@H](NC(=O)[C@H](N)c3ccsc3)C(=O)N2[C@H]1c1nnn[nH]1 [D-2-amino-2-(3-thienyl)acetyl, 6-(D-2-Amino-2-[3-thienyl]acetamido)-2,2-dimethyl-3-(5-tetrazolyl)penam]
Percentage Protection E. coli ([1]; 25 mg./kg. SC): 20%
Percentage Protection E. coli ([1]; 50 mg./kg. SC): 20%
Percentage Protection E. coli ([1]; 200 mg./kg. PO): 0%
Percentage Protection S. aureus ([2]; 6 mg./kg. SC): 50%
Percentage Protection S. aureus ([2]; 12 mg./kg. SC): 50%
Percentage Protection S. aureus ([2]; 25 mg./kg. SC): 60%
Percentage Protection S. aureus ([2]; 50 mg./kg. SC): 40%
MIC [4, 5]: < 0.1 µg/mL

CC1(C)S[C@@H]2[C@H](NC(=O)[C@H](NC(=O)CC3=NCCN3)c3ccccc3)C(=O)N2[C@H]1c1nnn[nH]1
MIC [4, 5]: 3.12 µg/mL (≈ 6.45 µM)

CC1(C)S[C@@H]2[C@H](NC(=O)[C@H](NC(=O)CC(=N)N)c3ccccc3)C(=O)N2[C@H]1c1nn[nH]n1 [D-2-(2-[guanyl]acetamido)-2-phenylacetyl, 6-(D-2-[2-Guanylacetamido]-2-phenylacetamido)-2,2-dimethyl-3-(5-tetrazolyl)penam]
MIC [4, 5]: 12.5 µg/mL (≈ 27.3 µM)

CC1(C)S[C@@H]2[C@H](NC(=O)[C@H](NS(=O)(=O)Cc3ccccc3)c3ccccc3)C(=O)N2[C@H]1c1nn[nH]n1
MIC [4, 5]: 0.39 µg/mL (≈ 0.739 µM)

CC1(C)S[C@@H]2[C@H](NC(=O)[C@H](N)Cc3c[nH]c4ccccc34)C(=O)N2[C@H]1c1nnn[nH]1 [D-2-amino-3-(3-indolyl)propionyl]
MIC [4, 5]: 6.25 µg/mL (≈ 14.7 µM)

COc1ccc([C@@H](N)C(=O)N[C@@H]2C(=O)N3[C@@H]2SC(C)(C)[C@@H]3c2nnn[nH]2)cc1 [D-2-amino-2-(p-methoxyphenyl)acetyl]
MIC [4, 5]: < 0.1 µg/mL

CC(C)C(NC(=N)c1ccncc1)C(=O)N[C@@H]1C(=O)N2[C@@H]1SC(C)(C)[C@@H]2c1nnn[nH]1 (stereo partly shown)
MIC [4, 5]: 50 µg/mL (≈ 113 µM)

CC1(C)S[C@@H]2[C@H](NC(=O)[C@H](NS(=O)(=O)c3ccc(Cl)cc3)c3ccccc3)C(=O)N2[C@H]1c1nn[nH]n1
MIC [4, 5]: 1.56 µg/mL (≈ 2.85 µM)
